“And” between values parts separate entries of the source, which are not always exact repeats. Equal entries are not always repeated. Where two headings read alike, the source gives them in different places.

The conditions of data set [1]: human, in vivo.
Data set [2] deals with human liver microsomes. The experiment in a line: Metabolism of pemigatinib in human liver microsomes with selective chemical CYP inhibitors. The note with it: pemigatinib 1 μM, human liver microsomes 1 mg/mL, NADPH; no inhibitor or furafylline 10, ticlopidine 2, quercetin 10, sulfaphenazole 10, tranylcypromine 20, quinidine 1, ketoconazole 2 μM. Background: Liver microsomes are vesicles of endoplasmic reticulum, rich in cytochrome P450 enzymes.
Procedure: (§1) Aliquots were taken at 0, 10, 20, and 30 minutes and denatured with methanol. After centrifugation to remove the denatured proteins, the resulting supernatants were analyzed by LC/MS.

Data set [3] has as its system human liver microsomes. The conditions noted are these: 0.5 h, 1 μM, pH 7.4.
Procedure: as §1
The nature of data set [4]: Phase 1 drug-drug interaction study: safety and tolerability (TEAEs). The note with it: healthy male and female volunteers.
Procedure: In addition, this study also evaluates the safety and tolerability of pemigatinib when administered alone or in combination with itraconazole or rifampin. Safety and tolerability is assessed by monitoring adverse events, vital signs, physical examinations, 12-lead ECGs, and clinical laboratory blood and urine sample assessments. Pharmacokinetic endpoints include tmax, AUC0-t, AUC0-∞, t1/2, CL/F, and Vz/F.
Vital signs (oral temperature; respiratory rate; automated, seated blood pressure; and pulse) are obtained at screening, check-in, and follow-up; at 0 hour (predose) on Days 1 and 8; and at approximately 1, 2, 3, 6, and 24 hours after the morning dose on Day 4 and Day 9. Clinical safety laboratory assessments are performed at screening; on Days −1, 2, 5, 9, 10, and 11; and at follow-up. A serum pregnancy is obtained at screening and follow-up. A urine pregnancy test is obtained at check-in for each visit for all women. On Day 8, a 12-lead ECG is performed predose, 2 hours postdose, and approximately 24 hours postdose. On other days, 12-lead ECGs are performed only at predose.
Vital signs (oral temperature; respiratory rate; automated, seated blood pressure; and pulse) are obtained at screening, check-in and follow-up; at 0 hour (predose) on Days 1 and 11; and at approximately 1, 2, 3, 6, and 24 hours after the morning dose on Days 4, 10, and 12. Clinical safety laboratory assessments are performed at screening; on Days −1, 2, 8, and 13; and at follow-up. A serum pregnancy test is obtained at screening and follow-up. A urine pregnancy test is obtained at check-in for each visit for all women. On Day 11, a 12-lead ECG is performed predose, 2 hours postdose, and approximately 24 hours postdose. On other days, 12-lead ECGs is performed only at predose.
Data set [5] in a line: Phase 1 drug-drug interaction study: single-dose pemigatinib PK alone or with itraconazole or rifampin.
[6] abbreviates: Cohort 2: 13.5 mg pemigatinib alone or with rifampin 600 mg QD, geometric mean.
[7] abbreviates: Cohort 2: 13.5 mg pemigatinib alone or with rifampin 600 mg QD, mean ± SD.

For `CCC(C)n1ncn(-c2ccc(N3CCN(c4ccc(OCC5COC(Cn6cncn6)(c6ccc(Cl)cc6Cl)O5)cc4)CC3)cc2)c1=O` (centres unmarked) [Itraconazole, reference compound], in data set [1] (po), the “Pemigatinib AUC Ratio, Observed” value is 1.88 and the “Pemigatinib Cmax Ratio, Observed” value came to 1.17.
Regarding `N[C@@H]1C[C@H]1c1ccccc1` (racemic) [Tranylcypromine], the “Mean Percent of Pemigatinib Remaining After 30-Minute Incubation (N = 3)” value with human liver microsomes [2] was found to be 73 ± 2%.
Consider `Nc1ccc(S(=O)(=O)Nc2ccnn2-c2ccccc2)cc1` [Sulfaphenazole], for which the “Mean Percent of Pemigatinib Remaining After 30-Minute Incubation (N = 3)” value in the data set on human liver microsomes [3] amounted to 70 ± 3%.
For `O=c1c(O)c(-c2ccc(O)c(O)c2)oc2cc(O)cc(O)c12` [Quercetin], in the data set on human liver microsomes [3], the “Mean Percent of Pemigatinib Remaining After 30-Minute Incubation (N = 3)” value was determined as 77 ± 1%.
What is called CL/F is clearance divided by bioavailability, as obtained after extravascular dosing. A word on the Cmax: it is the peak of the concentration-time curve. As usually defined, the Tmax is the time at which the peak concentration occurs. As to `CCN1C(=O)N(c2c(F)c(OC)cc(OC)c2F)Cc2cnc3[nH]c(CN4CCOCC4)cc3c21` [Pemigatinib + rifampin], the “Decrease in half-life of pemigatinib following rifampin coadministration” value in data set [1] was determined as 63%. Moreover, the “Safety and tolerability (overall conclusion)” value in data set [4] was “safe and generally well tolerated”. In addition, in data set [5] (setting [6]), the AUC0-t came out at 0.28 µM·h, the “AUC0-∞” value was 0.292 µM·h, the CL/F was 94.7 L/h and the Cmax came to 66.9 nM. Besides, the t1/2 in data set [5] (setting [6]) was 4.7 h and 4.69 h. Moreover, in data set [5] (setting [7]), the AUC0-t turned out to be 0.289 ± 0.0749 µM·h, the “AUC0-∞” value amounted to 0.301 ± 0.0755 µM·h, the CL/F is reported as 97.5 ± 23.8 L/h and the t1/2 stood at 5.05 ± 2.76 h. Also, the time to peak (Tmax) in data set [5] (Cohort 2: 13.5 mg pemigatinib alone or with rifampin 600 mg QD, median) is listed as 1.00 h. The Cmax in data set [5] (Cohort 2: healthy volunteers n=18, single oral 13.5 mg pemigatinib fasted, alone or with rifampin 600 mg QD, mean ± SD) turned out to be 69.7 ± 20 nM. Moreover, in data set [5] (with potent CYP3A4 inhibitor or inducer, healthy volunteers), the “Change in pemigatinib exposure on coadministration” value is recorded as “clinically significant decrease”.
As to `Cc1nc2c([nH]1)c(=O)n(C)c(=O)n2Cc1ccco1` [Furafylline], the “Mean Percent of Pemigatinib Remaining After 30-Minute Incubation (N = 3)” value in the data set with human liver microsomes [3] was determined as 67 ± 1%.

Values taken from patent US11628162B2, “Methods of treating cancer with an FGFR inhibitor” (Incyte Corporation, priority 2019, dated 2023).
